Reference: patent US20130102009A1, “SIRTUIN ACTIVATORS AND ACTIVATION ASSAYS” (priority 2010, published 2013)
“And” between values parts separate entries of the source, which are not always exact repeats. Identical values can stand only once. Counter-ions that a name gives are not always drawn.

Legend:
SIRT1 [1] = target: T1, SIRT1 (Homo sapiens, UniProt Q96EB6); assay: Mass spectrometry based SIRT1 activation assay (TAMRA/5TMR-labeled 20mer peptide); format: biochemical; settings: for Emax: 25 min, percent maximum fold activation of SIRT1, read-out: % FOLD ACT.; for EC1.5 uM: concentration that results in 150% activation of SIRT1
T1 sequence (Q96EB6 1-747): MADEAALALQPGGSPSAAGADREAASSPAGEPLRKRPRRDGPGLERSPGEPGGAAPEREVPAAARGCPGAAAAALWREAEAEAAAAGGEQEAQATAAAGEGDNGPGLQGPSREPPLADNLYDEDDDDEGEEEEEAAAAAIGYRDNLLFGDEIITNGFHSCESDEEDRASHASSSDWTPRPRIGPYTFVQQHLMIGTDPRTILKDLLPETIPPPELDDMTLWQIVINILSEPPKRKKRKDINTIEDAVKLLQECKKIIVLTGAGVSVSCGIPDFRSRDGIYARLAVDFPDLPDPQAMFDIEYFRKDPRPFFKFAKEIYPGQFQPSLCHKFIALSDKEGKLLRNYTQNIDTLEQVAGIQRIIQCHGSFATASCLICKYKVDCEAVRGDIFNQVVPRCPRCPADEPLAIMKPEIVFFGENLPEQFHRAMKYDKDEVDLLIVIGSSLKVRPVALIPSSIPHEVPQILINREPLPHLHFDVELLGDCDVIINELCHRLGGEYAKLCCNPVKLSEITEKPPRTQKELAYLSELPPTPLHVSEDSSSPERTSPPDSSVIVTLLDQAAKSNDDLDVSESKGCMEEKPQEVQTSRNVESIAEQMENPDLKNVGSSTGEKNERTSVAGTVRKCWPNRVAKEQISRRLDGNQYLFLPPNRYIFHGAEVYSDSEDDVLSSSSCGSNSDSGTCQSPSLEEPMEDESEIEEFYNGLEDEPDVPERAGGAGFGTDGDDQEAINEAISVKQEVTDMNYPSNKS
Text: A mass spectrometry based assay was used to identify modulators of SIRTI activity. The mass spectrometry based assay utilizes a peptide having 20 amino acid residues as follows: Ac-EE-K(biotin)-GQSTSSHSK(Ac)NleSTEG-K(5TMR)-EE-NH2 (SEQ ID NO: 1) wherein K(Ac) is an acetylated lysine residue and Nle is a norleucine. The peptide is labeled with the fluorophore 5TMR (excitation 540 nrnIemission 580 nm) at the C-terminus. The sequence of the peptide substrate is based on p53 with several modifications. In addition, the methionine residue naturally present in the sequence was replaced with the norleucine because the methionine may be susceptible to oxidation during synthesis and purification.
The mass spectrometry assay is conducted as follows: 0.5 J-1M peptide substrate and 120 μM βNAD^+ is incubated with 10 nM SIRT1 for 25 minutes at 25° C. in a reaction buffer (50 mM Tris-acetate pH 8, 137 mM NaCl, 2.7 mM KCl, 1 mM MgClz, 5 mM DTT, 0.05% BSA). Test compounds may be added to the reaction as described above. The SirTI gene is cloned into a T7-promoter containing vector and transformed into BL21 (DE3). After the 25 minute incubation with SIRT1, 10 μL of 10% formic acid is added to stop the reaction. Reactions are sealed and frozen for later mass spec analysis. Determination of the mass of the substrate peptide allows for precise determination of the degree of acetylation (i.e. starting material) as compared to deacetylated peptide (product).
A control for inhibition of sirtuin activity is conducted by adding 1 μL of 500 mM nicotinamide as a negative control at the start of the reaction (e.g., permits determination of maximum sirtuin inhibition). A control for activation of sirtuin activity is conducted using 10 nM of sirtuin protein, with 1 μL of DMSO in place of compound, to determine the amount of deacetylation of the substrate at a given timepoint within the linear range of the assay. This timepoint is the same as that used for test compounds and, within the linear range, the endpoint represents a change in velocity.
For the above assay, SIRTI protein was expressed and purified as follows. The SirT1 gene was cloned into a T7-promoter containing vector and transformed into BL21(DE3). The protein was expressed by induction with 1 mM IPTG as an N-terminal His-tag fusion protein at 18° C. overnight and harvested at 30,000×g. Cells were lysed with lysozyme in lysis buffer (50 mM Tris-HCl, 2 mM Tris[2-carboxyethyl]phosphine (TCEP), 10 μM ZnCl2, 200 mM NaCl) and further treated with sonication for 10 min for complete lysis. The protein was purified over a Ni-NTA column (Amersham) and fractions containing pure protein were pooled, concentrated and run over a sizing column (Sephadex S200 26/60 global). The peak containing soluble protein was collected and run on an Ion-exchange column (MonoQ). Gradient elution (200 mM-500 mM NaCl) yielded pure 20 protein. This protein was concentrated and dialyzed against dialysis buffer (20 mM TrisHCl, 2 mM TCEP) overnight. The protein was aliquoted and frozen at −80° C. until further use.
Sirtuin modulating compounds that activated SIRT1 were identified using the assay described above and are shown below in Table 4. The EC1.5 values represent the concentration of test compounds that result in 150% activation of SIRT1. The EC1.5 values for the activating compounds are represented by A (EC1.5≦1 μM), B (EC1.5>1 μM). The percent maximum fold activation is represented by A (Fold activation ≧200%) or B (Fold Activation <200%).

SIRT1 [2] = target: T1, SIRT1; assay: Mass spectroscopic kinetic assay of SIRT1-catalyzed deacetylation of 20mer peptides; format: biochemical; settings: for Effect on the deacetylation of des(biotin,TAMRA)-peptide: substrate des(biotin,TAMRA)-peptide; for RVmax for activation of the deacetylation of desTAMRA-peptide / EC50: substrate desTAMRA-peptide, fit to eq (1); for EC50: read-out: EC50 for activation of the deacetylation of desTAMRA-peptide; for Ki,app for inhibition of the deacetylation of p53-20 mer / Ki: substrate p53-20 mer, RV=1/(1+([X]o/Ki,app)); for Ki: read-out: Ki,app for inhibition of the deacetylation of p53-20 mer
Description: Bovine glutamate dehydrogenase (GDH), α-ketoglutarate, NADH and NAD^+ were from Sigma Chemical Company. […] The nicotinamidase PNC1 was prepared as described by Denu and colleagues (Smith et al. (2009) Anal Biochem 394, 101-109). Our collection of approximately 5,000 SIRT1 activators was screened using the BioTrove mass spectrometry system, as previously described (Milne et al. (2007) Nature 450, 712-716). […] Compounds were present at 10 μM, and the assays were conducted in a pH 7.4 buffer containing 150 mM Tris, 5 mM DTT, 1% DMSO, and 0.025% BSA. To determine the interaction of STACs with SIRT1 two kinetic methods were employed. […] (2007) Nature 450, 712-716). The other, used with peptides of general structure […], used a continuous, enzyme-coupled method reported previously (Smith et al. (2009) Anal Biochem 394, 101-109), in which the SRT1 product nicotinamide is first converted into nicotinic acid and ammonia by the action of PNC1, and the ammonia then used by GDH to convert α-ketoglutarate into glutamate. This reaction occurs with oxidation of NADH to NAD^+ which is accompanied by a change in absorbance at 340 nm (Δε340=-6,200 M^-1 cm^-1). Activator titrations were plotted as relative velocity (i.e., the ratio of vx, velocity in the presence of activator X, to vo, velocity in the absence of activator) vs. [X]o, initial concentration of activator, and fit by nonlinear least-squares to the mechanism-independent expression for enzyme activation of […] the maximum relative velocity (i.e., vx/vo at infinite [X]o) and EC50 is the activator concentration at which vx/vo=(RVmax-1)/2. EC50 is a function of the kinetic mechanisms of both catalysis and activation, and the concentrations of substrates.

| Structure (SMILES) | Emax (SIRT1 [1]) [%] | EC1.5 uM (SIRT1 [1]) | further results |
| --- | --- | --- | --- |
| O=C(Nc1ccccc1-c1cn2c(CN3CCNCC3)csc2n1)c1cccc(-c2ccccc2)c1 [Compound 1, N-(2-(3-(piperazin-1-ylmethyl)imidazo[2,1-b]thiazol-6-yl)phenyl)biphenyl-3-carboxamide] | ≥ 200 | A (EC1.5≦1 μM) | – |
| O=C(Nc1ccccc1-c1cn2c(CN3CCNCC3)csc2n1)c1nc2ncccc2o1 [Compound 3, N-(2-(3-(piperazin-1-ylmethyl)imidazo[2,1-b]thiazol-6-yl)phenyl)oxazolo[4,5-b]pyridine-2-carboxamide] | < 200 | B (EC1.5>1 μM) | – |
| O=C(Nc1ccccc1-c1nc2cc(CN3CC[C@@H](F)C3)cnc2s1)c1cccc(OC2CN3CCC2CC3)c1 (stereo partly drawn) [Compound 5, N-(2-(6-(((R)-3-fluoropyrrolidin-1-yl)methyl)thiazolo[5,4-b]pyridin-2-yl)phenyl)-3-(quinuclidin-3-yloxy)benzamide] | ≥ 200 | B (EC1.5>1 μM) | – |
| CC(C)CNCC1CC1C(=O)Nc1ccccc1-c1nc2cc(CN3CCNCC3)cnc2s1 (stereo not drawn) [Compound 6] | – | B (EC1.5>1 μM) | – |
| COc1ccc(C(=O)Nc2ccccc2-c2nc3cc(COC4CCNCC4)cnc3s2)cc1OC [Compound 8, 3,4-dimethoxy-N-(2-(6-((piperidin-4-yloxy)methyl)thiazolo[5,4-b]pyridin-2-yl)phenyl)benzamide] | ≥ 200 | A (EC1.5≦1 μM) | – |
| CN(C)CCNCc1cccc(C(=O)Nc2ccccc2-c2nc3cc(COC4CCNCC4)cnc3s2)c1 [Compound 9] | < 200 | B (EC1.5>1 μM) | – |
| CC(C)Cc1nc(NC2CCNCC2)cc(C(=O)Nc2ccccc2-c2nc3cc(COC4CCNCC4)cnc3s2)n1 [Compound 11, 2-isobutyl-6-(piperidin-4-ylamino)-N-(2-(6-((piperidin-4-yloxy)methyl)thiazolo[5,4-b]pyridin-2-yl)phenyl)pyrimidine-4-carboxamide] | ≥ 200 | A (EC1.5≦1 μM) | Effect on the deacetylation of des(biotin,TAMRA)-peptide (SIRT1 [2]): none activate; RVmax for activation of the deacetylation of desTAMRA-peptide (SIRT1 [2]): ~2.3; RVmax for activation of the deacetylation of desTAMRA-peptide (SIRT1 [2]; listed as 23): 2.8±0.2; EC50 (SIRT1 [2]): ~2000 nM and 2200 nM; Ki,app for inhibition of the deacetylation of p53-20 mer (SIRT1 [2]): inhibit; Ki (SIRT1 [2]): 10 ± 1 µM |
| CCCCc1nc(NCCNC)cc(C(=O)Nc2ccccc2-c2nc3cc(COC4CCNCC4)cnc3s2)n1 [Compound 12, 2-butyl-6-(2-(methylamino)ethylamino)-N-(2-(6-((piperidin-4-yloxy)methyl)thiazolo[5,4-b]pyridin-2-yl)phenyl)pyrimidine-4-carboxamide] | ≥ 200 | A (EC1.5≦1 μM) | Effect on the deacetylation of des(biotin,TAMRA)-peptide (SIRT1 [2]): none activate; RVmax for activation of the deacetylation of desTAMRA-peptide (SIRT1 [2]): ~2.3; RVmax for activation of the deacetylation of desTAMRA-peptide (SIRT1 [2]; listed as 24): 2.1 ± 0.1; EC50 (SIRT1 [2]): ~2000 nM and 1500 nM; Ki,app for inhibition of the deacetylation of p53-20 mer (SIRT1 [2]): inhibit; Ki (SIRT1 [2]): 9 ± 3 µM |
| CCCNc1cc(-c2nc3c(NC(=O)c4cccc(C5CCNC5)c4)cccc3[nH]2)ccn1 (stereo not drawn) [Compound 15, N-(2-(2-(propylamino)pyridin-4-yl)-1H-benzo[d]imidazol-4-yl)-3-(pyrrolidin-3-yl)benzamide hydrochloride] | ≥ 200 | A (EC1.5≦1 μM) | – |
| O=C(Nc1cccc(COC2CCNCC2)c1)c1cccc2[nH]c(-c3ccnc(N4CCOCC4)c3)nc12 [Compound 17, 2-(2-morpholinopyridin-4-yl)-N-(3-((piperidin-4-yloxy)methyl)phenyl)-1H-benzo[d]imidazole-4-carboxamide] | ≥ 200 | A (EC1.5≦1 μM) | – |
| CN(C)CCCNc1ccc(-c2nc3cc(NC(=O)c4cccc(CN5CCNCC5)c4)ccc3[nH]2)cn1 [Compound 18] | < 200 | B (EC1.5>1 μM) | – |
| COc1ccc2nc(NC(=O)c3cccc4[nH]c(-c5ccc(N6CCNCC6)nc5)nc34)sc2c1 [Compound 19, N-(6-methoxybenzo[d]thiazol-2-yl)-2-(6-(piperazin-1-yl)pyridin-3-yl)-1H-benzo[d]imidazole-4-carboxamide] | ≥ 200 | A (EC1.5≦1 μM) | – |
| N#Cc1ccc(NC(=O)c2cccc3[nH]c(-c4ccc(N5CCNCC5)nc4)nc23)cc1C(F)(F)F [Compound 20, N-(4-cyano-3-(trifluoromethyl)phenyl)-2-(6-(piperazin-1-yl)pyridin-3-yl)-1H-benzo[d]imidazole-4-carboxamide] | ≥ 200 | A (EC1.5≦1 μM) | – |
| CCCCN(CCCC)c1cc(-c2nc3c(C(=O)Nc4cccc(COC5CCNCC5)c4)cccc3[nH]2)ccn1 [Compound 21] | ≥ 200 | A (EC1.5≦1 μM) | – |
